Source: PubChem BioAssay AID504328 (The Scripps Research Institute Molecular Screening Center, 2011)
Activity calls are given as the source filed them.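 The calls were made as follows: active = EC50 at or below 10 µM; inactive = EC50 above 10 µM.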

Molecular target: Caspase-3 (Homo sapiens) (UniProt P42574)
Assay: procaspase-3 activation potency of dual hits, dose response, counter-screen for dual procaspase-3/7 activator project, biochemical, absorbance, PC-3 D3A mutant (AID 504328)
Details: recombinant PC-3 D3A, Ac-DEVD-pNA absorbance 405 nm

Caspase-3 (Homo sapiens), sequence (P42574 whole entry D9A/D28A/D175A): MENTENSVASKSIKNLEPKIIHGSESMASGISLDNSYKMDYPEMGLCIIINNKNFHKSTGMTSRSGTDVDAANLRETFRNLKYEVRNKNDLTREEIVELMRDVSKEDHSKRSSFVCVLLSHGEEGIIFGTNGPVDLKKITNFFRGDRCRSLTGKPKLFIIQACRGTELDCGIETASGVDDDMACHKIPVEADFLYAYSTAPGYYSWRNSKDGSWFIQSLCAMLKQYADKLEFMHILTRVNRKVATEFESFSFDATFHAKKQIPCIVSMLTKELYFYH

EC50: > 85.3 µM (inactive)
Compound: CCOc1ccc(N=CC2=C(O)CC(c3ccco3)CC2=O)cc1 (stereo unspecified)
